Tests used:
[1] = test system: macrophage cells differentiated from THP-1 cells; experiment: Suppression of IL-1β production by macrophage cells activated by amyloid β peptide aggregate (ELISA); format: cell-based, human; details: 50 μM and 100 μM compound, 24 h pretreatment; 25 μM Aβ aggregate 24 h; FIG. 3
Description: (§1) 1.4. Evaluation of Activity of Suppressing Activation of Macrophage Cells Induced by Amyloid β Peptide Cells of the human monocytic cell line THP-1 were suspended in RPMI1640 (10% FBS) medium, the cells were seeded in a 96-well plate at 8.0×10^4 cells/well, 100 nM 12-O-tetradecanoylphorbol 13-acetate (PMA, differentiation-inducing factor) was added thereto, and culture was conducted in the presence of 5% CO2 for 24 hours to differentiate the cells into macrophage cells. Thereafter, the medium was exchanged with another RPMI1640 (10% FBS) medium containing either the turmeric extracts (50, 100, and 200 μg/ml), termeronol A (12.5, 25, 50, or 100 μM), or termeronol B (12.5, 25, 50, or 100 μM), and culture was conducted in the presence of 5% CO2 for 24 hours to treat the cells with each specimen. Thereafter, the medium was exchanged with another RPMI1640 (2% FBS) medium containing an aggregate of 25 μM amyloid β peptides (Aβ), and culture was conducted in the presence of 5% CO2 for 24 hours to activate the cells. Thereafter, prostaglandin E2 (PGE2), the tumor necrosis factor α (TNF-α), and interleukin-1β (IL-1β) released in the medium were assayed via ELISA.

[2] = test system: macrophage cells differentiated from THP-1 cells; experiment: Suppression of TNF-α production by macrophage cells activated by amyloid β peptide aggregate (ELISA); format: cell-based, human; details: 50 μM and 100 μM compound, 24 h pretreatment; 25 μM Aβ aggregate 24 h; FIG. 2
Description: as §1

[3] = test system: macrophage cells differentiated from THP-1 cells; experiment: Suppression of PGE2 production by macrophage cells activated by amyloid β peptide aggregate (ELISA); format: cell-based, human; details: 12.5 to 100 μM compound, 24 h pretreatment; 25 μM Aβ aggregate 24 h; FIG. 1
Description: as §1

[4] = test system: human neuroblastoma SHSY5Y cells; experiment: Cell death of SHSY5Y cells induced by conditioned medium of Aβ-activated macrophage cells (WST-1 assay); format: cell-based; details: macrophage cells pretreated with termeronol B 50 μM 24 h, then 25 μM Aβ 12 h; SHSY5Y 48 h in conditioned medium; vs control (Aβ+); FIG. 4
Description: Cells of the human monocytic cell line THP-1 were suspended in RPMI1640 (10% FBS) medium, the cells were seeded in a 96-well plate at 8.0×10^4 cells/well, 100 nM 12-O-tetradecanoylphorbol 13-acetate (PMA, differentiation-inducing factor) was added thereto, and culture was conducted in the presence of 5% CO2 for 24 hours to differentiate the cells into macrophage cells. […]
WST-1 assays comprise: adding WST-1 (2-(4-iodophenyl)-3-(4-nitrophenyl)-5-(2,4-disulfophenyl)-2H-tetrazolium, monosodium salt, Dojindo Laboratories) to each well containing cells; conducting culture in a CO2 incubator for a given period of time to generate water-soluble formazan from WST-1 with the activity of dehydrogenase in mitochondria of viable cells; and assaying the concentration of the generated formazan. […] The formazan concentration was determined based on the absorbance at 450 nm using a microplate reader (reference wavelength: 630 nm). […]

SMILES	enhancement of IL-1β production by Aβ treatment [1]	enhancement of TNF-α production by Aβ treatment [2]	enhancement of PEG2 production by Aβ treatment [3]	activity of the culture supernatant for inducing cell death of brain neuronal cells [4]
CC(C)=CC(=O)CC(C)c1ccc(C)c(O)c1 (stereo not shown) [termeronol A, Termeronol A]	suppress the enhancement of IL-1β production	suppress the enhancement of TNF-α production	suppress the enhancement of PEG2 production	–
CC(C)=CC(=O)CC(C)c1ccc(C)cc1O (stereo not shown) [termeronol B, Termeronol B]	suppress the enhancement of IL-1β production	suppress the enhancement of TNF-α production	suppress the enhancement of PEG2 production	more suppressed
